In patent US20070004715A1, “Novel spiro-quinuclidinyl derivatives for the treatment of central nervous system disorders” (priority 2005, published 2007):
Where a name gives a salt, the structure may show the parent alone. Read-outs that look alike come from different tables or passages of the source.

How the values were obtained:
[1] = tested on: Synaptosomes from guinea pig hippocampus; conditions: peptide at 100 μM; 'known to' inhibit release; cited from earlier work
fluo-Aβ1-40 = target: T1, fluo-Aβ1-40 (Homo sapiens, UniProt P05067); assay: Aβ Aggregation Assay (Synthaloid plates, fluo-Aβ1-40); assay type: biochemical; conditions: 10 μM test compound, 100 nM fluo-Aβ1-40, 2.5 hr at room temperature; higher % = greater effectiveness at preventing aggregation
T1 construct: added 100 nM of fluo-Aβ1-40 in 100 μl
Procedure: Aβs are known to form aggregates leading to the formation of amyloid plaques that are characteristic of Alzheimer's disease.
This aggregation assay was validated using both ^125I-Aβ1-40 and fluo-Aβ1-40 in a buffer containing 50 mM HEPES, pH 7.4, 0.1% BSA, 10% FCS and protease inhibitors.
To each well of a 96-well Synthaloid plate was added 100 nM of fluo-Aβ1-40 in 100 μl. To each well was then added 10 μM of test compound. The plate was then allowed to incubate for 2.5 hr at room temperature. At the end of the incubation, unbound protein in the wells was removed by three washes using the buffer as described above. The amount of bound protein (which represents the amount of Aβ aggregation) was measured either by fluorescence measurements.
Higher fluorescence values relative to vehicle wells were interpreted as an indication of greater Aβ aggregation. […] Higher % values in the data in Table 4 below, below indicates greater effectiveness at preventing aggregation.
(§1) Both the Aβ aggregation assay as described in Example 55, particularly as run using the ^125I-Aβ1-40, and the % inhibition of AcH release assay as described in Example 56, were highly variable on a run-to-run basis. However, the relative activities of the tested compounds were reproducible.

[2] = tested on: Synaptosomes from guinea pig hippocampus; assay: % Inhibition of AcH Release Assay (K+-evoked 3H-acetylcholine release); assay type: cell-based; conditions: synaptosomes pre-treated with 10 μM test compound prior to 65 mM K+ stimulation
Procedure: Synaptosomes from guinea pig hippocampus were incubated with 0.1 μM ^3H-choline and then subjected to repeated washes with buffer to remove unincorporated ^3H-choline. The synaptosomes were then treated with 65 mM K^+ for 30 seconds to elicit 3H-acetylcholine release.
To determine if a test compound will inhibit acetylcholine release, the synaptosomes were pre-treated with 10 μM of the test compound prior to the K+ stimulation. The decrease or increase in acetylcholine release was then measured by superfusion.
as §1

[3] = target: T2, M1 muscarinic receptor (M1 human CHO receptor membranes) (Homo sapiens, UniProt P11229); assay: M1 Muscarinic Receptor % Inhibition Assay (SPA, tritiated scopolamine); assay type: binding
T2 construct: purchased Amersham 6110503; host or cells: CHO cell membranes
T2 sequence (P11229 1-460): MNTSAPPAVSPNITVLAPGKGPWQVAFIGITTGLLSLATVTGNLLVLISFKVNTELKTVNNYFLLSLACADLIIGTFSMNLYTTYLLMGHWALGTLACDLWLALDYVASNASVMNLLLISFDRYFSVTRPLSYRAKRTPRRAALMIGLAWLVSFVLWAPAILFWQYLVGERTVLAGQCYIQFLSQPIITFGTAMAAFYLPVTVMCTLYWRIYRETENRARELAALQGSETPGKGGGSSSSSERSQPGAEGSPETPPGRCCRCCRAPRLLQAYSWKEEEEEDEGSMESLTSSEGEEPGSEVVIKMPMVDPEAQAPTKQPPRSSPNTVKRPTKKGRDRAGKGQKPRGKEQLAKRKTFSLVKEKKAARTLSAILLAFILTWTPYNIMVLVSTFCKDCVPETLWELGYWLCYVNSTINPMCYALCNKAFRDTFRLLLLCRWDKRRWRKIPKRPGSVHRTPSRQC

T1 sequence (P05067 672-711): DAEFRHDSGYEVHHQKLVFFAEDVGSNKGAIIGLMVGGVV

Row | Compound | Inhibition of acetylcholine release [1] [%] | Aβ aggregation inhibition (%) (fluo-Aβ1-40) | Inhibition of acetylcholine release [2] [%] | % Inhibition @1 μM ([3]; 1 μM compound) [%] | % Inhibition @10 μM ([3]; 10 μM compound) [%]
1 | Aβ1-42: β-amyloid1-42 peptide, forms oligomers, fibrils and amyloid plaques | 33 | – | – | – | –
2 | Cc1ccc(N2C(=N)CC3(CN4CCC3CC4)OC2=O)cc1Cl (stereo not drawn) [Compound 109, 3′-(3-chloro-4-methylphenyl)-quinuclidine-3-spiro-4′-iminooxan-2-ones trifluoroacetate salt] | – | 80 | 33 | 90 | 98
3 | O=C1OC2(CN3CCC2CC3)C(=O)N1c1cccc([N+](=O)[O-])c1 (stereo not drawn) [Compound 6, 3′-(3-nitrophenyl)-quinuclidine-3-spiro-5′-oxazolidine-2′,4′-dione trifluoroacetate salt] | – | 21 | 64 | – | –
4 | Aβ1-40: β-amyloid peptide 1-40, known to inhibit acetylcholine release from synaptosomes | 33 | – | – | – | –
5 | COc1cccc(N2C(=O)OC3(CN4CCC3CC4)C2=O)c1 (stereo not drawn) [Compound 14, 3′-(3-methoxyphenyl)-quinuclidine-3-spiro-5′-oxazolidine-2′,4′-dione trifluoroacetate salt] | – | 42 | 14 | – | –
6 | O=C1OC2(CN3CCC2CC3)C(=O)N1c1ccccc1F (stereo not drawn) [Compound 9, 3′-(2-fluorophenyl)-quinuclidine-3-spiro-5′-oxazolidine-2′,4′-dione trifluoroacetate salt] | – | 100 | 16 | – | –
7 | Cc1cc(C)cc(N2C(=O)OC3(CN4CCC3CC4)C2=O)c1 (stereo not drawn) [Compound 20, 3′-(3,5-dimethylphenyl)-quinuclidine-3-spiro-5′-oxazolidine-2′,4′-dione trifluoroacetate salt] | – | 0 | 53 | – | –
8 | CCOC(=O)CN1C(=O)OC2(CN3CCC2CC3)C1=O (stereo not drawn) [Compound 30, 3′-(2-ethoxycarbonylmethyl)-quinuclidine-3-spiro-5′-oxazolidine-2′,4′-dione hydrochloride] | – | 100 | 21 | – | –
9 | Cc1cc(O)ccc1N1C(=O)OC2(CN3CCC2CC3)C1=O (stereo not drawn) [Compound 19, 3′-(4-hydroxy-2-methylphenyl)-quinuclidine-3-spiro-5′-oxazolidine-2′,4′-dione trifluoroacetate salt] | – | 0 | 27 | – | –
10 | COc1ccc(N2C(=N)CC3(CN4CCC3CC4)OC2=O)cc1 (stereo not drawn) [Compound 100, 3′-(4-methoxyphenyl)-quinuclidine-3-spiro-4′-iminooxan-2-ones trifluoroacetate salt] | – | 48 | 34 | – | –
11 | N=C1CC2(CN3CCC2CC3)OC(=O)N1c1cc(Cl)cc(Cl)c1 (stereo not drawn) [Compound 107, 3′-(3,5-dichlorophenyl)-quinuclidine-3-spiro-4′-iminooxan-2-ones trifluoroacetate salt] | – | 30 | 54 | – | –
12 | O=C1OC2(CN3CCC2CC3)C(=O)N1c1cccc(F)c1 (stereo not drawn) [Compound 25, 3′-(3-fluorophenyl)-quinuclidine-3-spiro-5′-oxazolidine-2′,4′-dione trifluoroacetate salt] | – | 5 | 48 | – | –
